Earlier results on two compounds are cited in patent US5177084A, “Therapeutic use of substituted benzenes, formulations thereof and novel substituted benzenes” (Merck Sharp & Dohme Ltd., priority 1989, dated 1993).

For the data set the following is noted: literature report, test not specified.

In the case of `COc1ccc(C2(O)CN3CCC2CC3)cc1.O=C(O)C(=O)O` (centres unmarked) [Example 2, 3-Hydroxy-3-(4-Methoxyphenyl)quinuclidine Hydrogen Oxalate], the pharmacological activity entry is “did not display pharmacological activity”.

Take `O=C(O)C(=O)O.OC1(c2ccc(Cl)cc2)CN2CCC1CC2` (centres unmarked) [Example 4, 3-(4-Chlorophenyl)-3-hydroxy quinuclidine Hydrogen Oxalate]: the pharmacological activity result is reported as “did not display pharmacological activity”.
